Test results from US20040158066A1, “Novel pyridylmethylaminopyrimidines” (priority 2001, published 2004).
In brackets after ≈: the same amount, converted by molar mass.

Experiments:
[1] = system: Helicobacter pylori; assay: Inhibition of growth in vitro in liquid culture (NanoOrange fluorescence); format: cell-based; settings: liquid culture BHI/6% FCS medium, 24 hours incubation at 37° C., microaerobic, 1% DMSO
Description: Determination of the Inhibition of Growth In Vitro in Liquid Culture
The principle of the technique is based on the detection of the multiplication of, for example, Helicobacter pylori in liquid culture using BHI/6% FCS medium. The method ensures linear fluorescence increase in the range from 3×10^6 to 3×10^8 cells.
The bacterial culture was distributed with an initial density of 1-3×10^6 microbes/ml in a 96-well MTP in […]. The test substances in a concentration of […] in a final concentration of 1% DMSO were added to these minicultures. These MTPs were then incubated under microaerobic conditions (Anaerokult, Merck) and with shaking at 37° C. for 24 hours. Following the 24-hour incubation, the minicultures were transferred to filter MTPs and washed twice with isotonic buffer (filtered off with suction, taken up, shaken) and finally were taken up in double-distilled water and shaken, and an aliquot was transferred to a new MTP. This aliquot was admixed with the fluorescent dye NanoOrange (Molecular Probes) in accordance with the manufacturer's instructions. Development of protein detection took place at 90° C. in a pressure-secured sandwich technique. After the plates had cooled, the fluorescence was measured on a plate reader at 549 nm. […] This calculation was made using origin, sigmoidal curve adaptation by means of the ‘logistic’ algorithm.

[2] = system: Helicobacter pylori; assay: Agar dilution test (inhibition of growth in vitro on agar plates); format: cell-based; settings: 96 h, Columbia agar (Oxoid), growth period of 4 days, read-out: approx. MIC50
Description: Agar Dilution Test (Determination of the Inhibition of Growth In Vitro on Agar Plates)
The compounds of the formula I were investigated for their activity against Helicobacter pylori in accordance with the methodology described by Tomoyuki Iwahi et al. (Antimicrobial Agents and Chemotherapy, 1991, 490-496) using Columbia agar (Oxoid) over a growth period of 4 days.

[3] = system: Helicobacter pylori; assay: Helicobacter pylori eradication rate in vivo (urease test on antrum tissue); settings: infected gerbils; 50 mg/kg by tube, 3 × daily for 4 days; urease test four weeks after last treatment
Protocol: Determination of the Helicobacter pylori Eradication Rate In Vivo
Gerbils were infected on days 1, 3, and 5 with a suspension containing 10^8-10^9 Helicobacter pylori bacteria per animal. […] Beginning on day 36, the gerbils were treated on four successive days—three times daily at 07.30, 11.30, and 15.00 hours—with a placebo or the test substance, using a tube. Four weeks after the last treatment, the gerbils were sacrificed using CO2. A tissue sample of the antrum was introduced into the urease test solution and incubated at 37° C. for 24 hours. Changes in color of the solution from yellow to violet, which resulted from the increase in pH caused by the formation of NH3 from the urease, were detected. The eradication rate was calculated as the percentage of animals whose stomach tissue sample gave a negative urease test.
Conditions Under which the Animals were Kept:
Groups of 5-10 gerbils per cage (type IV Macrolon cage) were kept at an ambient temperature of 23±2° C. and a relative humidity of 50±10%. They were fed ad libitum with NAFAG feed No. 9439 for rats and mice (NAFAG AG, CH-2900, Gossau, Switzerland) and had free access to mains water during the experiment.
The substances administered are referenced in table C below using numbers which correspond to the numbers of the compounds in the examples.

Row | melting point [°C] | IC50 [1] [nM] | MIC50 [2] [µg/mL] | SMILES | Eradication rate [3] [%]
1 | 280 to 281 |  |  | Cc1nc(C)c(Cl)c(NCc2ccc(Oc3ccc4ncc([N+](=O)[O-])n4n3)cn2)n1.Cl.Cl | 
2 | 229.5 to 231.5 | 12 | ~0.1 (≈ 0.212 µM) | COc1c(Oc2ccc3ncc([N+](=O)[O-])n3n2)cnc(CNc2nc(C)nc(C)c2Cl)c1C [Compound 1, (5-Chloro-2,6-dimethylpyrimidin-4-yl)[4-methoxy-3-methyl-5-(3-nitroimidazo[1,2-b]pyridazin-6-yloxy)pyridin-2-ylmethyl]amine] | 
3 | 182.5 to 184 | 64 | ~0.1 (≈ 0.216 µM) | COc1c(OCCn2c([N+](=O)[O-])cnc2C)cnc(CNc2nc(C)nc(C)c2Cl)c1C [Compound 2, (5-Chloro-2,6-dimethylpyrimidin-4-yl){4-methoxy-3-methyl-5-[2-(2-methyl-5-nitroimidazol-1-yl)ethoxy]pyridin-2-ylmethyl}amine] | 
4 | 194 to 198 | 35 | ~0.1 (≈ 0.234 µM) | Cc1nc(C)c(Cl)c(NCc2ccc(Oc3ccc4ncc([N+](=O)[O-])n4n3)cn2)n1 [Compound 3, (5-Chloro-2,6dimethylpyrimidin-4-yl){5-(3-nitroimidazo[1,2-b]pyridazin-6-yloxy)pyridin-2-ylmethyl}amine] | 100
5 | 184 to 186 |  |  | Cc1nc(C)c(Cl)c(NCc2ccc(Oc3ccc4ncc([N+](=O)[O-])n4n3)c(Cl)n2)n1 [Compound 7, (5-Chloro-2,6-dimethylpyrimidin-4-yl)-[6-chloro-5-(3-nitroimidazo[1,2-b]pyridazin-6-yloxy)pyridin-2-ylmethyl]amine] | 

The remaining lines, values behind:

Row | SMILES | melting point [°C] | IC50 [1] [nM] | MIC50 [2] [µg/mL] | Eradication rate [3] [%]
6 | Cc1nc(C)c(Cl)c(NCc2ccc(Oc3ccc4ncc([N+](=O)[O-])n4n3)cn2)n1.O=S(=O)(O)O | 233 to 234 |  |  | 
7 | Cc1nc(C)c(Cl)c(NCc2ccc(OCCn3c([N+](=O)[O-])cnc3C)cn2)n1 [Compound 4, (5-Chloro-2,6-dimethylpyrimidin-4-yl){5-[2-(2-methyl-5-nitroimidazol-1-yl)ethoxy]pyridine-2-ylmethyl}amine] | 181.5 to 183.5 | 40 | ~0.1 (≈ 0.239 µM) | 
8 | Cc1nc(C)c(Cl)c(NCc2ccc(OCCn3c([N+](=O)[O-])cnc3C)c(Cl)n2)n1 [Compound 8, (5-Chloro-2,6-dimethylpyrimidin-4-yl)-{6-chloro-5-[2-(2-methyl-5-nitroimidazol-1-yl)ethoxy]pyridin-2-ylmethyl}amine] | 206 to 208 |  |  | 
9 | Cc1nc(C)c(Cl)c(CNCc2ccc(Oc3ccc4ncc([N+](=O)[O-])n4n3)cn2)n1 [Compound 9, (5-Chloro-2,6-dimethylpyrimidin-4-yl)methyl-[5-(3-nitroimidazo[1,2-b]pyridazin-6-yloxy)pyridin-2-ylmethyl]amine] | 183 to 184 |  |  | 
